Experimental data as given in US20150274690A1, “Strigolactone Compositions And Uses Thereof” (Asilomar Bio, Inc., priority 2013, published 2015).

Columns and labels:
Seeds of O. cumana = assay: Germination triggering of parasitic weed seeds; format: in vivo; details: 48 hours post-treatment; AB01 compared with 5-dS
Protocol: Seeds of O. cumana were primed by incubation on glass fiber filters in darkness at room temperature for 3 days. Specified concentrations of AB01 or 5-dS were applied and seeds were monitored at 48 hours post-treatment. Germination was evident by appearance of haustoria. Experiments were performed in triplicate.

Striga hermonthica seeds = details: 10^-8 M concentrations; cited from earlier work
cut flowers = assay: Vase life extension of cut flowers; format: in vivo
Protocol: This example determines the effect of the application of a plant propagation material comprising strigolactone or analogs or mimics thereof on the onset of water-stress symptoms in cut flowers during storage, shipping, and/or life in retail or consumer environment. We test a wide range of concentrations to focus our investigations of the effects of the plant propagation material on cut flowers. Indicators of water-limitation stress in flowers are measured (approximately daily). We take cut flowers, apply a plant propagation material in irrigation water, and place in a normal storage environment (e.g., regular day-night cycles, room temperature). The concentration of the strigolactone or analog or mimic thereof in the plant propagation material spanned a concentration range from 1 gram per liter to 1 picogram per liter. We then monitor plants daily for the presence of water stress indicators and shelf life, such as flower and leaf rolling (wilting), turgor of stems, chlorophyll content, and loss of petals.
Various concentrations of the strigolactone mimic were added to the irrigation water of the cut flowers. The vase life for cut flowers treated with water-only was approximately 4 days, whereas the vase life for the cut flowers treated with the plant propagation material was approximately 6-7 days.

Wheat = assay: Drought tolerance in greenhouse wheat; format: in vivo; details: 1 mg in 100 mL water; irrigation stopped; 7 days post treatment
Protocol: Wheat was grown in greenhouse conditions from seed for 6 weeks with adequate irrigation. Plants were treated with 1 mg of AB01 resuspended in acetone and diluted in 100 mL water, or mock treated as a control. Irrigation was stopped and plants monitored for symptoms of drought stress.

Striga = assay: Field trial in Striga infested fields, Siaya County, Kenya; format: in vivo; details: 1 gram per acre sprayed 1 week prior to planting
Protocol: Field trial was performed from August 2013 to January 2014 in Siaya County, Kenya. AB01 treated plots were sprayed with a 1 gram per acre dose 1 week prior to planting. Treatment was accomplished by resuspending solid AB01 in 1 mL of acetone, and diluting in 4000 L of water. 3 replicate treated and untreated plots (100 m2 each) were performed. […] (C) The biomass of Striga from each plot was collected and measured after harvest.

Alfalfa [1] = assay: Drought tolerance in alfalfa seedlings; format: in vivo; details: 1 mg/mL; irrigation stopped; approximately 7 days post-treatment
Protocol: Alfalfa was grown from seeds for 14 days. Seedlings were treated with 1 mg/mL AB01 or mock treated. Irrigation was stopped after treatment and seedlings were monitored for symptoms of water limitation stress.

[2] = test system: A. thaliana mutants lacking MAXI cytochrome P450 activity; assay: Complementation of Arabidopsis mutant deficient in strigolactone biosynthesis; format: in vivo, Arabidopsis thaliana; details: 1 uM as an irrigation supplement
Protocol: To further validate the bioactivity of AB01 we tested whether the compound could complement mutants of the model plant Arabidopsis thaliana that are deficient in strigolactone biosynthesis. […] We grew MAXI A. thaliana under standard conditions and added 1 uM AB01 as an irrigation supplement, or a mock treatment. […] Thus, the synthetic AB01 is sufficiently similar to strigolactone to both to trigger Striga germination as well as substitute for the natural compound in a model plant.

Tomato seedlings = assay: Salinity tolerance in tomato seedlings; format: in vivo; details: 10 mg/mL; 29.2 g/L NaCl irrigation 24 hours after treatment; 6 hours after salt irrigation
Protocol: Tomato seedlings were treated with 10 mg/mL AB01 or mock treated. 24 hours after treatment, they were irrigated with 250 mL water containing 29.2 g/L salt (NaCl).

[3] = test system: corn (Dekalb hybrid 68-05); assay: Corn field trial, Hays County, Tex., not irrigated; format: in vivo
Protocol: Field trial was performed from April to July 2014 in Hays County, Tex. Dekalb hybrid 68-05 was planted at a density of 25,000 plants per acre (30″rows with 8″spacing). The field was top-dressed with 80 lbs/ac nitrogen. The field was not irrigated. AB01 treated plots were sprayed with a 2 gram per acre dose at the tasseling (VT) stage. Spraying was accomplished by resuspending solid AB01 in 0.5 mL of acetone, and diluting in water for a spray volume of 1 gallon per 500 square feet. Experiments were performed in triplicate […] The fraction of fertilized ears was measured by visual inspection of the ear silk at the R2-R3 stage. Unfertilized silks that appear yellow/green, while fertilized silks appear reddish brown. Completely unfertilized ears have silks that are completely yellow/green, fertilized ears appear brown, while ears with an incomplete degree of fertilized silks have a mixed population of silks. […] Ears were visually inspected at harvest to monitor kernel set (the number of fully formed kernels in the mature ear). […] Ears volume was measured in the field at the R3 stage to calculate ear volume. The length and circumference of each ear was measure, and volume was calculated by treating the ear as a cylinder. Approximately 100 ears from each plot were measured. […] After harvest, ears were shelled and kernels counted and weighed to quantitate the ‘thousand kernel weight’ (TKW), or average mass of kernels in the trial. AB01 treated plots yielded kernels averaging 30% higher mass than control plots. Ears from control and treated plots were harvested, shelled, and moisture tested to quantitate dry mass. Control plots averaged 120 bushels per acre, while AB01 treated plots averaged 143 bushels per acre, a 19% increase. Grain yield is calculated at 15% moisture, a standard measure of harvest output.

Alfalfa [4] = assay: Salinity tolerance in alfalfa seedlings; format: in vivo; details: 1 mg/mL; irrigated every 48 hours with 35 g/L NaCl; after 5 days
Protocol: Alfalfa was grown from seeds for 14 days. Seedlings were treated with 1 mg/mL AB01 or mock treated. After treatment, plants were irrigated with 100 mL water containing 35 g/L dissolved salt (NaCl). Irrigation was performed every 48 hours and plants monitored for symptoms of salinity stress.

Seeds of Striga asiatica = assay: Triggering Striga germination (seed germination bioassay); format: in vivo; details: for bioactivity: induction of Striga germination (in words): radicle emergence from seeds
Protocol: (B) Bioactivity of synthetic SL. Seeds of Striga asiatica were exposed to SL (right) or a mock treatment (left). […] (C) Synthetic biological pathway for the production of SL in yeast, consisting of enzymes of plant and microbial origin. We tested the ability of AB01 to trigger the germination of Striga seeds. Seeds of Striga asiatica were conditioned by incubation in the dark at 30 degrees for 7 days, and dilutions of the AB01 material in water were applied. We observed that concentrations of 1 nanogram per liter and greater were able to trigger germination of approximately 30% of the seeds, which is similar to published efficiencies and activity for plant-derived strigolactone (FIG. 1A-B).

[5] = test system: Dekalb 67-86 RR corn seedlings; assay: Acute water stress in corn seedlings (leaf rolling score); format: in vivo; details: 40 mL of 0.1 mM or 1.0 mM; 6th day without irrigation
Protocol: Corn seedlings were scored as unstressed, moderately water stressed and severely water stressed as measured by visual inspection of leaf rolling, a response of corn to water stress. Dekalb 67-86 RR corn seeds were planted and then irrigated through 7 days after emergence in a greenhouse setting. Seedlings were then treated with 40 mL of water, 0.1 mM AB01 or 1.0 mM AB01 and irrigation ceased. On the 6th day without irrigation, seedlings were scored for water stress. Seedlings with open leaves were scored as unstressed; seedlings with partial leaf rolling were scored as moderately stressed; seedlings with completely rolled leaves were scored as severely stressed.

For `CC1=C[C@H](O/C=C2/C(=O)O[C@@H]3C4=C(CCCC4(C)C)CC23)OC1=O` (stereo partly shown) [5-dS, 5-deoxystrigol, reference compound], the “germination triggering efficiency (appearance of haustoria)” value (Seeds of O. cumana) was “Significant differences in germination triggering efficiency”.

In the case of `CC1=CC(OC=C2C(=O)OC3C4=C(CC23)C(O)CCC4(C)C)OC1=O` (stereo not drawn) [ent-strigol], the “activity in germination studies of Striga hermonthica seeds” value (Striga hermonthica seeds) is listed as 22%.

For `CC1=CC(O/C=C2\C(=O)O[C@]3(C)CCC4C(C)(C)CCC[C@]4(C)[C@@H]23)OC1=O` (stereo partly shown) [AB01], the “germination triggering efficiency (appearance of haustoria)” value (Seeds of O. cumana) was “Significant differences in germination triggering efficiency”, the “vase life of cut flowers” value (cut flowers; added to irrigation water, various concentrations, water-only approximately 4 days) was 6 to 7 days and the vase life extension (cut flowers; versus water-only control) was 50-60%. For the same compound, the “symptoms of drought stress (wilting)” value (Wheat) was “appeared vigourous”, the “Striga emergence and Striga-related stress in plots” value (Striga) was “few signs of Striga-related stress and parasite emergence” and the “biomass of Striga per plot after harvest” value (Striga) was “significant reduction in the mass of Striga present”. The “count of emergent Striga per plot” value (Striga) was “few parasites in treated plots”, the “increase of grain yields compared to untreated plots” value (Striga) was 25% and the “appearance of seedlings under water limitation stress” value (Alfalfa [1]) was “treated seedlings appeared robust”. For the same compound, the “impact on phenotype of strigolactone-deficient mutant” value [2] was “visible impact on the phenotype of the mutant”, the “symptoms of salinity shock (wilting)” value (Tomato seedlings) was “appeared unstressed” and the “increase of harvest grain yield over control plots” value ([3]; 2 gram per acre spray at VT) was 19%. For the same compound, the “average kernel mass (thousand kernel weight), higher than control plots” value ([3]; 2 gram per acre spray at VT, after harvest) was 30%, the harvest grain yield ([3]; 2 gram per acre spray at VT, calculated at 15% moisture, control plots 120) was 143 bushels per acre and the ear volume ([3]; 2 gram per acre spray at VT, measured at R3 stage, vs mock) was “significantly higher volumes”. For the same compound, the “kernel set at harvest” value ([3]; 2 gram per acre spray at VT, visual inspection, vs mock) was “more complete kernel set and few signs of kernel abortion”, the “fraction of fertilized / unfertilized ears” value ([3]; 2 gram per acre spray at tasseling (VT), ear silk inspected at R2-R3 stage, vs mock) was “decreased the fraction of unfertilized ears while increasing the fraction of fertilized ears” and the “symptoms of salinity stress (chlorosis, vigor)” value (Alfalfa [4]) was “displayed significantly higher vigor”. The “fraction of Striga seeds triggered to germinate” value (Seeds of Striga asiatica; at 1 nanogram per liter and greater) was “approximately 30%”, the “concentrations able to trigger germination of Striga seeds” value (Seeds of Striga asiatica; dilutions in water, seeds conditioned in the dark at 30 degrees for 7 days) was ≥ 1 nanogram per liter and the “bioactivity: induction of Striga germination (in words)” value (from here on “bioactivity: induction”) (Seeds of Striga asiatica) was “graded dose-response behavior”. The “bioactivity: induction” value (Seeds of Striga asiatica; listed as Synthetic SL) was “potent bioactivity, with nanograms of material inducing germination of Striga seeds”, the “bioactivity: induction” value (Seeds of Striga asiatica; listed as synthetic SL) was “displayed bioactivity” and the “bioactivity: induction” value (Seeds of Striga asiatica; listed as synthetically produced SL) was “effective at germinating seeds of Striga asiatica”. The “fraction of seedlings scored unstressed / severely water stressed” value [5] was “decreased the fraction of severely stressed seedlings while increasing the fraction of unstressed seedlings in a dose-dependent manner”.

In the case of `CC1=C[C@H](O/C=C2/C(=O)O[C@@H]3C4=C(C[C@H]23)C(O)CCC4(C)C)OC1=O` (single isomer, unassigned; (+)) [(+)-strigol, (+)-Strigol], the “activity in germination studies of Striga hermonthica seeds” value (Striga hermonthica seeds) is given as 93%.
